Test results as given in US6107068A, “Coenzyme A disulfide reductase, and inhibitors thereof useful as antimicrobial agents” (The University of British Columbia, priority 1997, dated 2000).

Assays:
[1] = biological target: Coenzyme A disulfide reductase (CoADR) in extracts of Staphylococcus aureus (Staphylococcus aureus, UniProt O52582); assay: Pyridine nucleotide and disulfide dependent reduction of DTNB by dialyzed S. aureus extracts; assay type: biochemical
Experimental: Concentrations of […] (and dephosphoCoA disulfide) were measured spectrophotometrically at 340 nm (e^340 =6220 M^-1 cm^-1), 260 nm (e^260 =33,600 M^-1 cm^-1), and 450 nm (e^450 =11,000 M^-1 cm^-1), respectively. DTNB assays were performed in Tris-HCl (20 mM), pH 8.0, containing EDTA (1 mM) (TE buffer), and were monitored at 412 nm for the nitrobenzothiolate anion (e^412 =15,600 M^-1 cm^-1 (Ellman (1959) Arch. Biochem. Biophys. 82:70-77)). Protein concentrations were determined by reaction with bicinchoninic acid and copper sulfate (Deutscher (1990) in Meth. Enzymol., vol. 182. San Diego: Academic Press, Inc.). During purification, CoADR activity in crude extracts was monitored by the NADPH and CoA disulfide dependent reduction of DTNB. DTNB and all substrates were added at 0.1 mM. For kinetic analysis of purified CoADR activity, the oxidation of NADPH was measured as the decrease in absorbance at 340 nm (De^340 =6,220 M^-1 cm^-1), and was carried out in Tris-HCl (50 mM), pH 7.8, containing NaCl (50 mM).
In order to identify the enzyme responsible for maintaining CoA in its reduced form, S. aureus extracts were analyzed for a disulfide reductase specific for CoA disulfide. An overnight culture (10 ml) of R8325-4 was centrifuged (5,000×g, 10 min), resuspended in 3 ml of TE buffer containing lysostaphin (5 mg/ml), and incubated at 37° C. for 30 min until the suspension became viscous. Glass beads (1 g) and PMSF (to 1 mM) were added, the mixture was vortexed for two minutes and then centrifuged (14,000×g, 10 min) to remove the insoluble cellular debris. The resulting viscous lysate was dialyzed exhaustively (3,600 Mr cutoff) against TE buffer. The dialysate was then assayed for the pyridine nucleotide (1 mM) and CoA disulfide (1 mM) dependent reduction of DTNB (1 mM).

[2] = biological target: S. aureus coenzyme A disulfide reductase (Staphylococcus aureus, UniProt O52582); assay: Steady state kinetic analysis of NADPH oxidation by disulfide substrates catalyzed by purified CoADR (340 nm)
Chain of S. aureus coenzyme A disulfide reductase (O52582 2-438): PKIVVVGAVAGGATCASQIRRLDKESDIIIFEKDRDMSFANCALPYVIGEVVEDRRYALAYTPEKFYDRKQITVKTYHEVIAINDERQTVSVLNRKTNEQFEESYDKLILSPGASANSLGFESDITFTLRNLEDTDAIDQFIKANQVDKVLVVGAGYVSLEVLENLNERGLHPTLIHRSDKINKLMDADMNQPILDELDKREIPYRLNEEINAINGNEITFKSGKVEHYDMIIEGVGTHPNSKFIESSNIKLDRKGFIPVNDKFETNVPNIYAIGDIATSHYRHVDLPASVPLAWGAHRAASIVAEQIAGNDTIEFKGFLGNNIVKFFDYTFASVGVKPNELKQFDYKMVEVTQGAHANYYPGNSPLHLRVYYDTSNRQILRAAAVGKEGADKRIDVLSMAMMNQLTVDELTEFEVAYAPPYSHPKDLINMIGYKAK
Experimental: (§1) DTNB assays were performed in Tris-HCl (20 mM), pH 8.0, containing EDTA (1 mM) (TE buffer), and were monitored at 412 nm for the nitrobenzothiolate anion (e^412 =15,600 M^-1 cm^-1 (Ellman (1959) Arch. Biochem. Biophys. 82:70-77)). […] For kinetic analysis of purified CoADR activity, the oxidation of NADPH was measured as the decrease in absorbance at 340 nm (De^340 =6,220 M^-1 cm^-1), and was carried out in Tris-HCl (50 mM), pH 7.8, containing NaCl (50 mM).
(§2) The specificity of CoADR for these substrates and various other biological disulfides were quantitated kinetically. Kinetic measurements were performed in a 1 cm path-length quartz cuvette maintained at 37° C. […] Enzyme and NADPH were combined in buffer and equilibrated to 37° C., and the reaction was initialized by the addition of the disulfide substrate. The activity of CoADR was monitored at 340 nm as the decrease in absorbance resulting from the oxidation of NADPH. All kinetic measurements were recorded in the linear range, and at least seven substrate concentrations were used for each analysis. Kinetic constants were calculated from a linear least squares fit of the initial velocity data to the Michaelis-Menton equation using the program HyperO.

[3] = Cu2+ catalyzed oxidation of thiols (remaining thiol by DTNB); assay type: physicochemical; conditions: thiol 1 mM, CuCl2 1 mM, Tris-HCl pH 7.5, ambient temperature
Experimental: To determine the relative stability of CoA to heavy metal-catalyzed oxidation, the rate of Cu^2+ catalyzed oxidation of cysteine, GSH, and CoA were compared. Each sample (2 ml) of thiol (1 mM) in Tris-HCl buffer (20 mM), pH 7.5, containing CuCl2 (1 mM) was incubated at ambient temperature. Thiol determination was then carried out at various times by adding aliquots ([…]) from each sample to a solution ([…]) of DTNB (1 mM) in Tris-HCl buffer (20 mM), pH 8.0, containing EDTA (1 mM). The absorbance of these samples at 412 nm was measured and the concentration of remaining thiol determined.

[4] = system: CC(C)(COP(=O)(O)O)[C@@H](O)C(=O)NCCC(=O)NCCSSCCNC(=O)CCNC(=O)[C@H](O)C(C)(C)COP(=O)(O)O; assay: purified protein, by the assay type; conditions: other: disulfide substrate varied, NADPH maintained at 200 mM, 37° C., nd = no activity detected
Experimental: as §1, §2

[5] = system: CC(C)(COP(=O)(O)OP(=O)(O)OC[C@H]1O[C@@H](n2cnc3c(N)ncnc32)[C@H](O)[C@@H]1O)[C@@H](O)C(=O)NCCC(=O)NCCSSCCNC(=O)CCNC(=O)[C@H](O)C(C)(C)COP(=O)(O)OP(=O)(O)OC[C@H]1O[C@@H](n2cnc3c(N)ncnc32)[C@H](O)[C@@H]1O; assay: purified protein, by the assay type; conditions: other: disulfide substrate varied, NADPH maintained at 200 mM, 37° C., nd = no activity detected
Experimental: as §1, §2

[6] = system: CC(C)(COP(=O)(O)OP(=O)(O)OC[C@H]1O[C@@H](n2cnc3c(N)ncnc32)[C@H](O)[C@@H]1OP(=O)(O)O)[C@@H](O)C(=O)NCCC(=O)NCCSSCCNC(=O)CCNC(=O)[C@H](O)C(C)(C)COP(=O)(O)OP(=O)(O)OC[C@H]1O[C@@H](n2cnc3c(N)ncnc32)[C@H](O)[C@@H]1OP(=O)(O)O; assay: purified protein, by the assay type; conditions: other: disulfide substrate varied, NADPH maintained at 200 mM, 37° C., nd = no activity detected
Experimental: as §1, §2

[7] = system: CC(C)(COP(=O)(O)OP(=O)(O)OC[C@H]1O[C@@H](n2cnc3c(N)ncnc32)[C@H](O)[C@@H]1OP(=O)(O)O)[C@@H](O)C(=O)NCCC(=O)NCCSSC[C@H](NC(=O)CC[C@H](N)C(=O)O)C(=O)NCC(=O)O; assay: purified protein, by the assay type; conditions: other: disulfide substrate varied, NADPH maintained at 200 mM, 37° C., nd = no activity detected
Experimental: as §1, §2

[8] = system: NC(=O)C1=CN([C@@H]2O[C@H](COP(=O)(O)OP(=O)(O)OC[C@H]3O[C@@H](n4cnc5c(N)ncnc54)[C@H](OP(=O)(O)O)[C@@H]3O)[C@@H](O)[C@H]2O)C=CC1; assay: purified protein, by the assay type
Experimental: as §1, §2

[9] = background statement, Newton et al. (1996); cited from earlier work
[10] = biological target: the molecule itself; assay: gel exclusion chromatography of the native enzyme (approximately 85 kD) compared with SDS-PAGE of the subunit (~50 kD)
[11] = other: NADPH varied, CoA disulfide maintained at 120 mM, 37° C.

Chain of Coenzyme A disulfide reductase (CoADR) in extracts of Staphylococcus aureus (O52582 2-438): as above

In the case of N[C@@H](CSSC[C@H](N)C(=O)O)C(=O)O [cystine], the “function in the NADPH-dependent reduction of DTNB” value [1] is reported as “did not function” and the “turnover / activity with CoADR” value [2] is reported as “No activity could be detected”.

With CC(C)(CO)[C@@H](O)C(=O)NCCC(=O)NCCSSCCNC(=O)CCNC(=O)[C@H](O)C(C)(C)CO [pantethine] the “function in the NADPH-dependent reduction of DTNB” value [1] was “did not function” and the “turnover / activity with CoADR” value [2] was “not turned over”.

In the case of CC(C)(COP(=O)(O)O)[C@@H](O)C(=O)NCCC(=O)NCCSSCCNC(=O)CCNC(=O)[C@H](O)C(C)(C)COP(=O)(O)O [4,4'-diphospho-pantethine], the “kcat lower than for 3'-dephospho-CoA disulfide” value [2] is reported as 2-3 fold.

For N[C@@H](CCC(=O)N[C@@H](CS)C(=O)NCC(=O)O)C(=O)O [GSH, g-glutamyl-cysteinyl-glycine], the “stability to copper-catalyzed autooxidation” value [3] was “much more stable than cysteine”.

With NC(=O)C1=CN([C@@H]2O[C@H](COP(=O)(O)OP(=O)(O)OC[C@H]3O[C@@H](n4cnc5c(N)ncnc54)[C@H](O)[C@@H]3O)[C@@H](O)[C@H]2O)C=CC1 [NADH] the “use in the CoA disulfide dependent reduction of DTNB” value [1] was “cannot be used”.

Work on “S. aureus coenzyme A disulfide reductase (Staphylococcus aureus subsp. aureus NCTC 8325)” yielded a Km [4] of 80 µM, a Km [5] of 140 µM and a Km [6] of 11 µM. For the same molecule, the Km [7] was 1100 µM, the Km [8, 11] was 1.6 µM and the kcat [8, 11] was 17 ± 1 s⁻¹. The Km ([8]; other: at saturating CoA disulfide, 37.0 °C) was 2 µM.

In the case of CC(C)(COP(=O)(O)OP(=O)(O)OC[C@H]1O[C@@H](n2cnc3c(N)ncnc32)[C@H](O)[C@@H]1O)[C@@H](O)C(=O)NCCC(=O)NCCSSCCNC(=O)CCNC(=O)[C@H](O)C(C)(C)COP(=O)(O)OP(=O)(O)OC[C@H]1O[C@@H](n2cnc3c(N)ncnc32)[C@H](O)[C@@H]1O [3'-dephospho-CoA disulfide], the “change in kcat as compared to CoA disulfide” value [2] is reported as “no detectable change” and the “increase in Km as compared to CoA disulfide” value [2] is reported as 10 fold.

For CC(C)(COP(=O)(O)OP(=O)(O)OC[C@H]1O[C@@H](n2cnc3c(N)ncnc32)[C@H](O)[C@@H]1OP(=O)(O)O)[C@@H](O)C(=O)NCCC(=O)NCCS [CoA, Coenzyme A], the “stability to heavy metal-catalyzed auto-oxidation” value [9] is given as “slightly more stable than glutathione”.

B1: Coenzyme A disulfide reductase (CoADR) from Staphylococcus aureus (enzyme)
chain: PKIVVVGAVAGGATCASQIRRLDKESDIIIFEKDRDMSFANCALPYVIGEVVEDRRYALAYTPEKFYDRKQITVKTYHEVIAINDERQTVSVLNRKTNEQFEESYDKLILSPGASANSLGFESDITFTLRNLEDTDAIDQFIKANQVDKVLVVGAGYVSLEVLENLNERGLHPTLINRSDKINKLMDADMNQPILDELDKREIPYRLNEEINAINGNEITFKSGKVEHYDMIIEGVGTHPNSKFIESSNIKLDRKGFIPVNDKFETNVPNIYAIGDIATSHYRHVDLPASVPLAWGAHRAASIVAEQIAGNDTIEFKGFLGNNIVKFFDYTFASVGVKPNELKQFDYKMVEVTQGAHANYYPGNSPLHLRVYYDTSNRQILRAAAVGKEGADKRIDVLSMAMMNQLTVDELTEFEVAYAPPYSHPKDLINMIGYKAK
B1: binds [10].
